Molecular target: T1, Zinc finger protein mex-5 (Caenorhabditis elegans, UniProt Q9XUB2)
T1 sequence (Q9XUB2 whole entry): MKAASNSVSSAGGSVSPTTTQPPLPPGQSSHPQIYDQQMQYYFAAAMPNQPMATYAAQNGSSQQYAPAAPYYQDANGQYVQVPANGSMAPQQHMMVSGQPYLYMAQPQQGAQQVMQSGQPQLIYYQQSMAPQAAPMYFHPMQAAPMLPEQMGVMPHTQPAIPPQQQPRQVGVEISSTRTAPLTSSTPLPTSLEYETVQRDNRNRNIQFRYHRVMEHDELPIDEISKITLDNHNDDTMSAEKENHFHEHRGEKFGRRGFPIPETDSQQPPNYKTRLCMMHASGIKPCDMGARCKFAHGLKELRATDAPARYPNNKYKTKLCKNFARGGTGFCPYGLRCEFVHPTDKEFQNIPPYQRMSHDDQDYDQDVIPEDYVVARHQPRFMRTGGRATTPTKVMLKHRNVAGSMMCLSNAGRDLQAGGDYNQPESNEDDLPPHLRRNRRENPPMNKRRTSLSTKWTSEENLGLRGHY
Assay: potency of MEX-5 RNA-binding blockers – biochemical, C. elegans, fluorescence polarization, dose response (AID 1960)

## COc1ccc(C2C(C(=O)c3cccs3)C(=O)C(=O)N2c2nnc(C)s2)cc1OC (stereo not given) [2-(3,4-dimethoxyphenyl)-1-(5-methyl-1,3,4-thiadiazol-2-yl)-4-oxidanyl-3-thiophen-2-ylcarbonyl-2H-pyrrol-5-one]
  EC50: 5.19 µM

## CCCN1CCC2=C(C#N)C(=N)C(C#N)(C#N)C(c3cc(OC)ccc3OC)C2C1 (stereo not given) [6-Amino-8-(2,5-dimethoxy-phenyl)-2-propyl-2,3,8,8a-tetrahydro-1H-isoquinoline-5,7,7-tricarbonitrile]
  EC50: 25.5 µM

## NC(=O)c1ccccc1N=CCC(=O)c1ccc(F)cc1 [2-[[(E)-3-(4-fluorophenyl)-3-keto-prop-1-enyl]amino]benzamide]
  EC50: > 300 µM

## COc1ccc(N2C(=O)C(=Nc3ccccc3O)C(Cl)C2=O)cc1 (stereo not given) [3-Chloro-4-(2-hydroxy-phenylamino)-1-(4-methoxy-phenyl)-pyrrole-2,5-dione]
  EC50: 24.5 µM

## O=C(Cc1nc2cc(Cl)ccc2oc1=O)c1cccs1 [(3Z)-6-chloranyl-3-(2-oxidanylidene-2-thiophen-2-yl-ethylidene)-4H-1,4-benzoxazin-2-one]
  EC50: 153 µM

## Cc1ccc(C2C(C(=O)c3ccco3)C(=O)C(=O)N2c2nnc(C)s2)cc1 (stereo not given) [3-(furan-2-carbonyl)-4-hydroxy-2-(4-methylphenyl)-1-(5-methyl-1,3,4-thiadiazol-2-yl)-2H-pyrrol-5-one]
  EC50: > 300 µM

## Brc1ccc(C2=Nc3ncnn3C(c3ccco3)C2)cc1 (stereo not given)
  EC50: 18.1 µM

## Cc1ccc2c(c1)=C(NNc1ccccc1C)C(=O)N=2
  EC50: > 300 µM

## CCCCCCN1C(=O)NC(=O)C(=CNCCCn2ccnc2)C1=O [(5E)-1-hexyl-5-[[3-(1-imidazolyl)propylamino]methylidene]-1,3-diazinane-2,4,6-trione]
  EC50: > 300 µM

## CC1(C)CC(=O)C2=C(C1)OC(=N)C(C#N)C2c1ccc2c(c1)OCO2 (stereo not given) [SMR000514966]
  EC50: > 300 µM

## CSc1ccc(C2C(C(=O)c3ccco3)C(=O)C(=O)N2c2nnc(SC)s2)cc1 (stereo not given) [3-(furan-2-carbonyl)-4-hydroxy-2-(4-methylsulfanylphenyl)-1-(5-methylsulfanyl-1,3,4-thiadiazol-2-yl)-2H-pyrrol-5-one]
  EC50: 16.4 µM

## CC1(C)CC(=O)C2=C(C1)OC(=N)C(C#N)C2c1ccc(OC(=O)N2CCOCC2)cc1 (stereo not given) [4-morpholinecarboxylic acid [4-(2-amino-3-cyano-7,7-dimethyl-5-oxo-6,8-dihydro-4H-1-benzopyran-4-yl)phenyl] ester]
  EC50: > 300 µM

## CSc1nnc(N2C(=O)C(=O)C(C(=O)c3ccco3)C2c2ccccc2)s1 (stereo not given) [3-(furan-2-carbonyl)-4-hydroxy-1-(5-methylsulfanyl-1,3,4-thiadiazol-2-yl)-2-phenyl-2H-pyrrol-5-one]
  EC50: 76.6 µM

## Cc1ncc(C=O)c(CNNC(=O)c2cc(Br)ccc2O)c1O [5-bromanyl-N'-[(Z)-[5-(hydroxymethyl)-2-methyl-3-oxidanylidene-pyridin-4-ylidene]methyl]-2-oxidanyl-benzohydrazide]
  EC50: 5.72 µM

## Cc1ccc(Cl)c2c1=NC(=O)C=2NNc1ccccc1
  EC50: > 300 µM

## COc1ccc(C=C2CCCC(C(=O)C(F)(F)F)C2=O)cc1OC (stereo not given) [(2E,6Z)-2-(3,4-dimethoxybenzylidene)-6-(2,2,2-trifluoro-1-hydroxyethylidene)cyclohexanone]
  EC50: 254 µM

## O=C1N=c2ccc(Br)cc2=C1NNc1nnn[nH]1 [5-bromanyl-3-[2-(2H-1,2,3,4-tetrazol-5-yl)hydrazinyl]indol-2-one]
  EC50: 5.18 µM

## CC(=O)Nc1ccc(N=CCC(=O)c2ccc(C)o2)cc1 [MLS000089004]
  EC50: > 300 µM

## COc1ccc(N2C(=O)C(=Cc3ccco3)C(=O)NC2=S)cc1 [MLS001204507]
  EC50: 3.9 µM

## CCOC(=O)c1c2ccc(OCC(=O)NN=Cc3ccc(Cl)cc3)cc2n2ccccc12 [3-[2-[2-[(4-chlorophenyl)methylidene]hydrazinyl]-2-oxoethoxy]-10-pyrido[1,2-a]indolecarboxylic acid ethyl ester]
  EC50: 160 µM

## Cc1ccc(CN=Nc2ncnc3nc[nH]c23)cc1 [MLS000419179]
  EC50: > 300 µM

## Cc1ccc(C(=O)Cc2nc3ccccc3oc2=O)cc1 [(3Z)-3-[2-(4-methylphenyl)-2-oxidanylidene-ethylidene]-4H-1,4-benzoxazin-2-one]
  EC50: > 300 µM

## N#CC1C(=N)Oc2ccc3ccc(O)cc3c2C1c1ccsc1 (stereo not given) [3-amino-9-hydroxy-1-(3-thienyl)-1H-benzo[f]chromene-2-carbonitrile]
  EC50: 11 µM

## Cc1sc2ncnc(N=NC(C)c3ccccn3)c2c1C (stereo not given) [5,6-dimethyl-N-(1-pyridin-2-ylethylideneamino)thieno[2,3-d]pyrimidin-4-amine]
  EC50: 46.7 µM

## CCOC(=O)C1C(=O)C(=Cc2cn(CC(=O)N3CCCC3)c3ccccc23)S/C1=N\c1ccccc1 (stereo not given) [(5Z)-2-anilino-4-keto-5-[[1-(2-keto-2-pyrrolidino-ethyl)indol-3-yl]methylene]thiophene-3-carboxylic acid ethyl ester]
  EC50: 26.2 µM

## COc1[nH]c(N=Cc2ccccc2)c(C#N)c1C#N [2-methoxy-5-[(phenylmethylene)amino]-1H-pyrrole-3,4-dicarbonitrile]
  EC50: 5.63 µM

## O=[N+]([O-])c1ccc(/N=N/c2ncc[nH]2)cc1 [N-(imidazol-2-ylideneamino)-4-nitroaniline]
  EC50: 20.7 µM

## Clc1ccc(C2=Nc3ncnn3C(c3ccco3)C2)cc1 (stereo not given)
  EC50: 3.36 µM

## [H]/N=C1/OC23CCCCC2C(C#N)(C#N)C1(C#N)C(c1ccc(OC)cc1)O3 (stereo not given) [MLS000554241]
  EC50: 11.2 µM

## O=C(O)c1ccc(NN=CC2=C(N3CCOCC3)C(=Cc3ccccc3)CC2)cc1 [4-[2-[[(3Z)-2-(4-morpholinyl)-3-(phenylmethylene)-1-cyclopentenyl]methylidene]hydrazinyl]benzoic acid]
  EC50: 109 µM

## Cc1ccc(NC=C2SC(=O)c3ccccc32)c(C)c1 [(3Z)-3-[(2,4-dimethylanilino)methylene]isobenzothiophen-1-one]
  EC50: > 300 µM

## Fc1ccc(C2=Nc3ncnn3C(c3ccco3)C2)cc1 (stereo not given) [5-(4-fluorophenyl)-7-(2-furanyl)-1,7-dihydro-[1,2,4]triazolo[1,5-a]pyrimidine]
  EC50: 12.8 µM

## COc1cc(S(=O)(=O)Nc2ccc(C)cc2)ccc1NC=C1C(=O)N(C)C(=O)C(C#N)=C1C [4-[[(Z)-(5-cyano-1,4-dimethyl-2,6-dioxopyridin-3-ylidene)methyl]amino]-3-methoxy-N-(4-methylphenyl)benzenesulfonamide]
  EC50: 23.9 µM

## N#CC1C(=N)OC2=C(C(=O)CCC2)C1c1ccccc1 (stereo not given) [2-amino-5-keto-4-phenyl-4,6,7,8-tetrahydrochromene-3-carbonitrile]
  EC50: > 300 µM

## O=C1N=C(O)C(C2=c3cc([N+](=O)[O-])ccc3=NC2=O)S1 (stereo not given) [MLS001163276]
  EC50: 21.5 µM

## O=CC(C=Nc1ccccn1)c1nc2cc(Cl)ccc2o1 (stereo not given) [(Z)-2-(5-chloranyl-1,3-benzoxazol-2-yl)-3-(pyridin-2-ylamino)prop-2-enal]
  EC50: 36.4 µM

## CCN(CC)CCNC=C1C(=O)NC(=O)N(CCc2ccccc2)C1=O [(5E)-5-[[2-(diethylamino)ethylamino]methylene]-1-phenethyl-barbituric acid]
  EC50: > 300 µM

## O=C1c2cccc3cccc(c23)C(=O)C1[N+](=O)[O-] [2-nitro-3-oxidanyl-phenalen-1-one]
  EC50: 9.23 µM

## Cc1ccc(-c2c(CCC(C)N=O)oc3ccc(Cl)cc23)o1 (stereo not given) [4-[5-chloro-3-(5-methyl-2-furanyl)-2-benzofuranyl]-2-butanone oxime]
  EC50: > 300 µM

## Cc1cc(N2C(=O)C(=O)C(C(=O)c3cc4ccccc4o3)C2c2ccc([N+](=O)[O-])cc2)no1 (stereo not given) [3-(1-benzofuran-2-carbonyl)-4-hydroxy-1-(5-methyl-1,2-oxazol-3-yl)-2-(4-nitrophenyl)-2H-pyrrol-5-one]
  EC50: 45.4 µM

## COC(=O)Cn1cc(C=C2C(=O)NC(=O)N(c3ccccc3)C2=O)c2ccccc21 [[3-(2,4,6-Trioxo-1-phenyl-tetrahydro-pyrimidin-5-ylidenemethyl)-indol-1-yl]-acetic acid methyl ester]
  EC50: 143 µM

## O=C1Nc2ccccc2C1=NNc1ccccc1 [3-(phenylhydrazo)-2-indolone]
  EC50: 18.3 µM

## O=C(O)COc1ccc(C=Cc2nnc(-c3ccccc3O)[nH]2)cc1 [2-[4-[(E)-2-[(5Z)-5-(6-oxo-1-cyclohexa-2,4-dienylidene)-1,2-dihydro-1,2,4-triazol-3-yl]ethenyl]phenoxy]acetic acid]
  EC50: 0.945 µM

## CC1=NC(c2ccccc2)C(C#N)(C#N)C(C#N)(C#N)C1 (stereo not given) [SMR000037705]
  EC50: 2.46 µM

## CN1CCC2=C(C#N)C(=N)C(C#N)(C#N)[C@H](c3cccc(Cl)c3)C2C1 (stereo partly drawn) [(8S)-6-amino-8-(3-chlorophenyl)-2-methyl-1,3,8,8a-tetrahydroisoquinoline-5,7,7-tricarbonitrile]
  EC50: 11.6 µM

## CCCCOC(=O)c1ccc(NN=C2C(=O)NC(=O)C(C#N)=C2C)cc1 [MLS000778379]
  EC50: > 300 µM

## COc1cccc(C2C(C(=O)c3cc4cccc(OC)c4o3)C(=O)C(=O)N2c2cc(C)on2)c1OC (stereo not given) [2-(2,3-dimethoxyphenyl)-3-[(7-methoxy-1-benzofuran-2-yl)carbonyl]-1-(5-methyl-1,2-oxazol-3-yl)-4-oxidanyl-2H-pyrrol-5-one]
  EC50: > 300 µM

## CC1(C)c2[nH]c3ccccc3c2Cc2c(O)n(-c3ccc(F)cc3F)c(=O)n21 [MLS001065879]
  EC50: 46.8 µM

## COc1ccc(C2C3=C(CCCC3=O)OC(=N)C2C#N)c(OC)c1OC (stereo not given) [2-Amino-5-oxo-4-(2,3,4-trimethoxy-phenyl)-5,6,7,8-tetrahydro-4H-chromene-3-carbonitrile]
  EC50: > 300 µM

## Cc1cccc(NNC2=c3cc(Br)ccc3=NC2=O)c1 [5-bromo-3-[2-(3-methylphenyl)hydrazinyl]indol-2-one]
  EC50: 26.9 µM
